Experimental data from US20130109682A1, “CYCLIC ETHER COMPOUNDS USEFUL AS KINASE INHIBITORS” (NOVARTIS AG, priority 2010, published 2013).
Where two headings read alike, the source gives them in different places.

How the values were obtained:
Format in all cases: biochemical
[1] = target: PDGFRaV561D kinase (Homo sapiens, UniProt P16234, V561D); experiment: PDGFRaV561D kinase inhibition assay (LanthaScreen TR-FRET); conditions: read-out: PDGFRa IC50
Procedure: PDGFRaV561D Kinase Inhibition Assay
(§1) LanthaScreen™ is the detection of Time-Resolved Fluorescence Resonance Energy Transfer (TR-FRET) using lanthanide chelates to measure interactions between various binding partners. The application of TR-FRET to assay kinase activity was first described by Mathis (1995). A TR-FRET assay was used to measure PDGFRaV561D kinase inhibitory activity. The assay panel was run on a Biomek FX liquid handling workstations. To the assay plates containing […] compound or control solutions, 4.5 μL of buffer A (50 mM TRIS-HCl pH 7.4, 2 mM DTT, 0.02% Tween 20, 0.02 mM Na3VO4, H2O nanpure) including a generic concentration of ATP (2 μM f.c.) was added per well, followed by […] of buffer B (4 uM ATP in Buffer A) including a generic concentration of polyEAY (50 nM f.c.), PDGFRaV561D kinase, and divalent cations. Final concentration of kinase and cations were: [PDGFRaV561D kinase]=4.4 nM, [Mn]=10 mM. After 1 hour of incubation the kinase reactions were stopped by the addition of 4.5 μL of stop solution D (50 mM EDTA, 20 mM TRIS-HCl pH 7.4, 0.04% NP-40) immediately followed by 4.5 μL of buffer A (50 mM TRIS-HCl pH 7.4, 2 mM DTT, 0.02% Tween 20, 0.02 mM Na3VO4, H2O nanpure) including the Tb-labeled P-20 antibody to give a total detection volume of […]. After an incubation time of 45 min in the dark, the plates were transferred into the Pherastar fluorescence reader for counting. The effect of compound on the enzymatic activity was obtained from the linear progress curves and determined from one reading (end point measurement).

[2] = target: T1, FLT3D835Y kinase (Homo sapiens, UniProt P36888, D835Y); experiment: FLT3D835Y kinase inhibition assay (LanthaScreen TR-FRET); conditions: read-out: FLT3 IC50
T1 sequence (P36888 27-993 D835Y): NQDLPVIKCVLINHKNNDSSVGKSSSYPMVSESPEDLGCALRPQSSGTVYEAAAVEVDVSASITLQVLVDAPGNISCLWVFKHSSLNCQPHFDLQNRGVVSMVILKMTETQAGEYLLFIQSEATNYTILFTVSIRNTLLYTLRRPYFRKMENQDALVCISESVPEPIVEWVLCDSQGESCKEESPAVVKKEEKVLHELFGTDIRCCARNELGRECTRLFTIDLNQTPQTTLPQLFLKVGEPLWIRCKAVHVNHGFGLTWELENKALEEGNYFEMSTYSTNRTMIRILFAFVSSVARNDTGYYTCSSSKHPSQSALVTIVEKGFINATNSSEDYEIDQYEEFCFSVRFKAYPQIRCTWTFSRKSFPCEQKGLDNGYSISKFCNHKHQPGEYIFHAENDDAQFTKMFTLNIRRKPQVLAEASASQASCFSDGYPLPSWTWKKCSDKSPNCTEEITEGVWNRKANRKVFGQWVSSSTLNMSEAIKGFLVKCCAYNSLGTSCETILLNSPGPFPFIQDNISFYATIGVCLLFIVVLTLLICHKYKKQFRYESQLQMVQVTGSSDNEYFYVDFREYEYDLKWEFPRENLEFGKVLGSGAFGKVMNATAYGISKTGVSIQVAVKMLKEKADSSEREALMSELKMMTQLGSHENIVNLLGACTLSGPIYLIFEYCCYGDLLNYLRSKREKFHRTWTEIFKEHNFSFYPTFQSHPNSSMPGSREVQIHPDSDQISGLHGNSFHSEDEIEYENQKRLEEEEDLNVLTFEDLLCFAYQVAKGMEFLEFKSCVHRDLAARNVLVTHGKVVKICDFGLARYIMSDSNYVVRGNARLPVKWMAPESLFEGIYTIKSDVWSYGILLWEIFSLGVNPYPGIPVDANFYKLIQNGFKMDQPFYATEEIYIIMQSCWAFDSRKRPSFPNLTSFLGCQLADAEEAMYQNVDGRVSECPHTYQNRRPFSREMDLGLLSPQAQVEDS
Procedure: FLT3D835Y Kinase Inhibition Assay
as §1, with “FLT3D835Y” for “PDGFRaV561D”, “[FLT3D835Y kinase]=5.7” for “[PDGFRaV561D kinase]=4.4”, “[Mg]=3 mM, [Mn]=3” for “[Mn]=10”

[3] = target: PKCα (Homo sapiens, UniProt P17252); experiment: PKCα kinase Caliper assay
Procedure: PKCα and cABLT315 Kinase Caliper Assays
Assays were performed in 384 well microtiter plates. Each assay plate contained 8-point serial dilutions for test compounds, as well as two 16-point serial dilutions of staurosporine as reference compound, plus 16 high- and 16 low controls. Liquid handling and incubation steps were done on a Thermo CatX workstation equipped with a Innovadyne Nanodrop Express. Between pipetting steps, tips were cleaned in wash cycles using wash buffer. Plates with terminated kinase reactions were transferred to the Caliper LC3000 workstations for reading. Phosphorylated and unphosphorylated peptides were separated using the Caliper microfluidic mobilitishift technology and Kinase activities were calculated from the amounts of formed phospho-peptide.
1. 0.05 μA Compound (start with 1.8 mM in 90% DMSO/10% H2O)
2. +4.5 μl 2× peptide/ATP solution
3. +4.5 μl 2× enzyme solution
4. Incubate for 60 min at 30° C.
4. +16 μl stop/run buffer
Independent of the kinase, all reactions were done performed in 50 mM HEPES, pH 7.5, 1 mM DTT, 0.02% Tween20, 0.02% BSA, and 0.6% DMSO.

[4] = PKCα Caliper assay, read-out: PKC IC50

Chain of PDGFRaV561D kinase (P16234 24-1089 V561D): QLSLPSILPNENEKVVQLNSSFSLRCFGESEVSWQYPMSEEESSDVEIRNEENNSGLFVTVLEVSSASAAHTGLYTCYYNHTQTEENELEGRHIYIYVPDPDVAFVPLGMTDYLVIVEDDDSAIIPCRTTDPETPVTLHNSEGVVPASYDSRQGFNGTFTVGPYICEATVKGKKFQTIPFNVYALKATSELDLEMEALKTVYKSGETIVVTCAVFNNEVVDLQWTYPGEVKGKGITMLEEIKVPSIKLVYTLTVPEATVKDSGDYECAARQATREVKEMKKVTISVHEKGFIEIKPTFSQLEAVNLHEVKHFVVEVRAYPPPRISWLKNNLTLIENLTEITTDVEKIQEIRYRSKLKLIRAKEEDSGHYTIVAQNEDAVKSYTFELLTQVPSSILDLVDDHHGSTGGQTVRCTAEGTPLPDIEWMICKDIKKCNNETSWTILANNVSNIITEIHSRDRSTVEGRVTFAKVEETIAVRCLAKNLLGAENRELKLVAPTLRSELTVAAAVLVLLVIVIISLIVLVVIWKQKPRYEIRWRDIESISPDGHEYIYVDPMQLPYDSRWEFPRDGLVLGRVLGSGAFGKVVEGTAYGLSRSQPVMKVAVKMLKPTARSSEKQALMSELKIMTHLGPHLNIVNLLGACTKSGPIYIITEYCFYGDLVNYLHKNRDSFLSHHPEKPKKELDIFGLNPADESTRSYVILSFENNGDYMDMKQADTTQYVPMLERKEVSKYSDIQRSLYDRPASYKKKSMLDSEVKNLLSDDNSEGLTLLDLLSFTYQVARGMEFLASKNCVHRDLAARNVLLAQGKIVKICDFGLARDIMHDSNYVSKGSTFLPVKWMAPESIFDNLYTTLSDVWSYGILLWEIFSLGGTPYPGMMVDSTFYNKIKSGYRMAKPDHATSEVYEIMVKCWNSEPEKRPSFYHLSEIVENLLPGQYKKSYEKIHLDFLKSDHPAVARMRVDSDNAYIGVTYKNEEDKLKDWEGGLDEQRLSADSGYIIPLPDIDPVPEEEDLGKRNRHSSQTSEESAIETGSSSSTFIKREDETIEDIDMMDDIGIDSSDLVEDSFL

Question: Which results are given for `O=C1CC[C@H]2O[C@@H](c3ccncc3NC(=O)c3ccc(F)c(-c4c(F)cccc4F)n3)C[C@@H](O)[C@@H]2N1` [Example 196, 6-(2,6-difluorophenyl)-5-fluoro-N-(4-((2R,4R,4aS,8aR)-4-hydroxy-6-oxooctahydro-2H-pyrano[3,2-b]pyridin-2-yl)pyridin-3-yl)picolinamide]?
Answer: IC50 [1]: > 10000 nM; IC50 [2]: > 10000 nM; IC50 ([3]; read-out: PKC IC50): > 10000 nM

Question: `N[C@H]1C[C@@H](c2ccncc2NC(=O)c2csc(-c3c(F)cccc3F)n2)O[C@H]2CCC[C@H]21` [Example 230, N-(4-((2S,4S,4aS,7aS)-4-aminooctahydrocyclopenta[b]pyran-2-yl)pyridin-3-yl)-2-(2,6-difluorophenyl)thiazole-4-carboxamide] was tested. Which IC50 [1] did it give?
Answer: 1500 nM

Question: And the IC50 [2]?
Answer: 270 nM

Question: And the IC50 [3, 4]?
Answer: 1100 nM

Question: Which IC50 [1] does the source give for `Nc1cc(F)c(-c2c(F)cccc2F)nc1C(=O)Nc1cnccc1[C@H]1C[C@@H](N)[C@@]2(O)CCCC[C@H]2O1` [Example 238, 3-amino-N-(4-((2R,4R,4aS,8aR)-4-amino-4a-hydroxyoctahydro-2H-chromen-2-yl)pyridin-3-yl)-6-(2,6-difluorophenyl)-5-fluoropicolinamide] here?
Answer: 7500 nM

Question: And the IC50 [2]?
Answer: 990 nM

Question: And the IC50 [3]?
Answer: > 10000 nM

Question: Which results are given for `Nc1cnc(-c2c(F)cccc2F)nc1C(=O)Nc1cnccc1[C@H]1C[C@@H](N)[C@@]2(O)CCC[C@H]2O1` [Example 213, 5-amino-N-(4-((2R,4R,4aS,7aR)-4-amino-4a-hydroxyoctahydrocyclopenta[b]pyran-2-yl)pyridin-3-yl)-2-(2,6-difluorophenyl)pyrimidine-4-carboxamide]?
Answer: IC50 [1]: 4000 nM; IC50 [2]: 3500 nM; IC50 ([3]; read-out: PKC IC50): > 10000 nM

Question: What does the source list for `CC(C)(C)[C@@H]1O[C@H](c2ccncc2NC(=O)c2nc(-c3ccccc3)cnc2N)C[C@@H](N)[C@H]1O` [Example 227, 3-amino-N-(4-((2S,4R,5R,6S)-4-amino-6-tert-butyl-5-hydroxytetrahydro-2H-pyran-2-yl)pyridin-3-yl)-6-phenylpyrazine-2-carboxamide]?
Answer: IC50 [1]: 1300 nM; IC50 [2]: 140 nM; IC50 [3, 4]: 55 nM

Question: Which results are given for `CC[C@]1(O)[C@H](O)C[C@H](c2ccncc2NC(=O)c2nc(-c3c(F)cccc3F)ncc2N)O[C@@H]1C` [Example 143, 5-amino-2-(2,6-difluorophenyl)-N-(4-((2R,4R,5S,6R)-5-ethyl-4,5-dihydroxy-6-methyltetrahydro-2H-pyran-2-yl)pyridin-3-yl)pyrimidine-4-carboxamide]?
Answer: IC50 [1]: > 10000 nM; IC50 [2]: > 10000 nM; IC50 ([3]; read-out: PKC IC50): > 10000 nM

Question: With `CC(C)[C@H]1C[C@@H](N)C[C@@H](c2ccncc2NC(=O)c2nc(-c3ccccc3)cnc2N)O1` [Example 292, 3-amino-N-(4-((2S,4R,6R)-4-amino-6-isopropyltetrahydro-2H-pyran-2-yl)pyridin-3-yl)-6-phenylpyrazine-2-carboxamide] as the molecule, how does the IC50 [1] read?
Answer: 4400 nM

Question: And the IC50 [2]?
Answer: 590 nM

Question: And the IC50 [3, 4]?
Answer: 100 nM

Question: How did the IC50 [1] turn out when `Nc1ncc(-c2ccccc2)nc1C(=O)Nc1cnccc1[C@@H]1C[C@H](N)[C@@H](O)[C@H](C2CC2)O1` [Example 349, 3-amino-N-(4-((2S,4S,5R,6S)-4-amino-6-cyclopropyl-5-hydroxytetrahydro-2H-pyran-2-yl)pyridin-3-yl)-6-phenylpyrazine-2-carboxamide] was run?
Answer: 3300 nM

Question: And the IC50 [2]?
Answer: 250 nM

Question: What about the IC50 [3, 4] of the same molecule?
Answer: 140 nM

Question: `CC[C@]1(O)[C@H](N)C[C@H](c2ccncc2NC(=O)c2ccc(F)c(-c3c(F)cccc3F)n2)O[C@@H]1C` [Example 232, N-(4-((2R,4R,5S,6R)-4-amino-5-ethyl-5-hydroxy-6-methyltetrahydro-2H-pyran-2-yl)pyridin-3-yl)-6-(2,6-difluorophenyl)-5-fluoropicolinamide] was tested. Which IC50 [1] did it give?
Answer: 630 nM

Question: And the IC50 [2]?
Answer: 830 nM

Question: What about the IC50 [3, 4] of the same molecule?
Answer: 9500 nM

Question: How did the IC50 [1] turn out when `Nc1ncc(-c2ccccc2)nc1C(=O)Nc1cnccc1[C@H]1C[C@@H](N)[C@H](O)[C@@H](C2CC2)O1` [Example 346, 3-amino-N-(4-((2R,4R,5S,6R)-4-amino-6-cyclopropyl-5-hydroxytetrahydro-2H-pyran-2-yl)pyridin-3-yl)-6-phenylpyrazine-2-carboxamide] was run?
Answer: 72 nM

Question: And the IC50 [2]?
Answer: 8.5 nM

Question: And the IC50 [3, 4]?
Answer: 60 nM

Question: `C[C@@]1(O)[C@@H](N)C[C@@H](c2ccncc2NC(=O)c2nc(-c3ccccc3)cnc2N)OC12CC2` [Example 350, 3-amino-N-(4-((5S,7S,8R)-7-amino-8-hydroxy-8-methyl-4-oxaspiro[2.5]octan-5-yl)pyridin-3-yl)-6-phenylpyrazine-2-carboxamide] was tested. Which IC50 [1] did it give?
Answer: 420 nM

Question: What about the IC50 [2] of the same molecule?
Answer: 44 nM

Question: What about the IC50 [3, 4] of the same molecule?
Answer: 21 nM

Question: Which results are given for `CC[C@H]1O[C@@H](c2ccncc2NC(=O)c2nc(-c3ccccc3)cnc2N)C[C@@H](N)[C@@H]1O` [Example 343, 3-amino-N-(4-((2R,4R,5S,6R)-4-amino-6-ethyl-5-hydroxytetrahydro-2H-pyran-2-yl)pyridin-3-yl)-6-phenylpyrazine-2-carboxamide]?
Answer: IC50 [1]: 12 nM; IC50 [2]: 1.8 nM; IC50 [3, 4]: 23 nM

Question: How did the IC50 [1] turn out when `C[C@]1(O)[C@H](N)C[C@H](c2ccncc2NC(=O)c2nc(-c3ccccc3)cnc2N)OC12CC2` [Example 353, 3-amino-N-(4-((5R,7R,8S)-7-amino-8-hydroxy-8-methyl-4-oxaspiro[2.5]octan-5-yl)pyridin-3-yl)-6-phenylpyrazine-2-carboxamide] was run?
Answer: 760 nM

Question: And the IC50 [2]?
Answer: 95 nM

Question: And the IC50 [3, 4]?
Answer: 84 nM
